# Test results: ChEMBL document CHEMBL2390858, “Design, synthesis and anti-tuberculosis activity of 1-adamantyl-3-heteroaryl ureas with improved in vitro pharmacokinetic properties” (Bioorg Med Chem, 2013)
# Legend:
# [1] = buffer
# [2] = in vitro; details: human, plasma
# [3] = physchem; details: system solution buffer, pH 7.4
# [4] = test system: Pseudomonas aeruginosa; assay: microbe, parasite or virus in culture
# [5] = test system: Enterococcus faecalis; assay: microbe, parasite or virus in culture
# [6] = test system: Escherichia coli; assay: microbe, parasite or virus in culture; details: K-12
# [7] = test system: Mycobacterium tuberculosis; assay: microbe, parasite or virus in culture; details: H37Rv, 168 h
# [8] = target: T1, Bifunctional epoxide hydrolase 2 (Homo sapiens, UniProt P34913)
# T1 sequence (P34913 whole entry): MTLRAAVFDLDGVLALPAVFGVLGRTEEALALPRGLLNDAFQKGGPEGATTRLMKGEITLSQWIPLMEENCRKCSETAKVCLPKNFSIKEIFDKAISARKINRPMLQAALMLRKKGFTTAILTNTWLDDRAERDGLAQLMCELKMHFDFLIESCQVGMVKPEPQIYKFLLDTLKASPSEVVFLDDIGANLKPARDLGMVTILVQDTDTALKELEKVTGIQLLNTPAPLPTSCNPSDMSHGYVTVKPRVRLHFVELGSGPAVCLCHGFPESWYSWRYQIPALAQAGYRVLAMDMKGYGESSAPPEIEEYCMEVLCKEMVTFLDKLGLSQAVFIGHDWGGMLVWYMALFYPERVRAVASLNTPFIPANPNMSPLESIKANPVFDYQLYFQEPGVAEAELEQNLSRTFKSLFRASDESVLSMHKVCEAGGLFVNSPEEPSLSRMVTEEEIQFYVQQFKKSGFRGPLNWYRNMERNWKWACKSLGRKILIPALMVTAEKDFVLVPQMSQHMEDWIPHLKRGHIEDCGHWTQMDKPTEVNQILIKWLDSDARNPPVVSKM
# [9] = test system: Bacillus anthracis; assay: microbe, parasite or virus in culture; details: Sterne
# [10] = test system: Staphylococcus aureus; assay: microbe, parasite or virus in culture; details: ATCC 29213
# [11] = test system: Streptococcus pneumoniae; assay: microbe, parasite or virus in culture
# [12] = test system: Bacillus subtilis; assay: microbe, parasite or virus in culture
# [13] = test system: Vero; assay: cells; details: Chlorocebus sabaeus, 72 h
# [14] = test system: Staphylococcus aureus; assay: microbe, parasite or virus in culture; details: NRS70
# [15] = test system: Streptococcus pyogenes; assay: microbe, parasite or virus in culture
# [16] = test system: Plasma; details: human, 4 h, 10 µM
# [17] = test system: Burkholderia cepacia; assay: microbe, parasite or virus in culture
# [18] = test system: Klebsiella pneumoniae; assay: microbe, parasite or virus in culture
# [19] = test system: Acinetobacter; assay: microbe, parasite or virus in culture
# [20] = test system: Proteus mirabilis; assay: microbe, parasite or virus in culture
# [21] = Metabolic stability in CD-1 mouse liver microsomes assessed as compound remaining after 90 mins in presence of NADPH; format: ADME, Microsome; details: read-out: Stability
# [22] = test system: Proteus vulgaris; assay: microbe, parasite or virus in culture
SMILES,"fraction unbound at 4 h, 10 µM [2]",MIC [4] [µg/mL],MIC [5] [µg/mL],MIC [6] [µg/mL],MIC [7] [µg/mL],IC50 [8] [nM],MIC [9] [µg/mL],MIC [10] [µg/mL],MIC [11] [µg/mL],MIC [12] [µg/mL],IC50 [13] [µg/mL],MIC [14] [µg/mL],MIC [15] [µg/mL],PPB [16] [%],MIC [17] [µg/mL],MIC [18] [µg/mL],MIC [19] [µg/mL],MIC [20] [µg/mL],MIC [22] [µg/mL],also measured
COC(=O)c1ccc(NC(=O)NC23CC4CC(CC(C4)C2)C3)cc1O,0.031,,,,,,,,,,,,,,,,,,,"solubility ([1]; pH 7.4, 18 h): 0.51 µg/mL"
Cc1ccc(NC(=O)NC2CCCCCC2)cc1Cl,0.003,,,,,,,,,,,,,,,,,,,solubility at 18 h [3]: < 0.1 µg/mL
CC(C)(C)c1cc(NC(=O)NC2C3CC4CC(C3)CC2C4)no1 (stereo not drawn),,> 200,6.25,> 200,0.1,73,> 200,> 200,> 200,> 200,7,200,> 200,95.2,> 200,> 200,> 200,> 200,> 200,"solubility ([1]; 18 h, pH 7.4): 22.7 µg/mL; remaining at […] [21]: > 30%"
N#Cc1ccc(NC(=O)NC2C3CC4CC(C3)CC2C4)cc1 (stereo not drawn),0.01,,,,,,,,,,,,,,,,,,,solubility at 18 h [3]: < 0.1 µg/mL
CC(C)c1nnc(NC(=O)NC2C3CC4CC(C3)CC2C4)o1 (stereo not drawn),,> 200,100,> 200,1.56,843,100,> 200,100,100,33,> 200,200,98,> 200,> 200,> 200,> 200,> 200,remaining at […] [21]: > 30%
O=C(Nc1nc2ccccc2s1)NC12CC3CC(CC(C3)C1)C2,,> 200,> 200,> 200,0.78,3,200,> 200,> 200,200,17,> 200,> 200,,> 200,> 200,> 200,> 200,> 200,
CCCn1nc(NC(=O)NC2C3CC4CC(C3)CC2C4)cc1C (stereo not drawn),,> 200,> 200,> 200,1.56,936,> 200,> 200,> 200,> 200,83,> 200,> 200,98.9,> 200,> 200,> 200,> 200,> 200,"solubility ([1]; 18 h, pH 7.4): 2 µg/mL"
O=C(Nc1nccs1)NC12CC3CC(CC(C3)C1)C2,,> 200,> 200,> 200,3.13,83,> 200,> 200,100,> 200,22,> 200,> 200,,> 200,> 200,> 200,> 200,> 200,
